Data published in patent US5446037A, “2-[(substituted) methylene]cephalosporin sulfones as antiinflammatory, antidegenerative and antithrombin agents” (Synphar Laboratories, Inc., priority 1993, dated 1995).

Each molecule was assayed against T1, human plasma thrombin (Homo sapiens, UniProt P00734) (assay: Inhibition of thrombin (Chromozym TH spectrophotometric end-point assay, 410 nm)). Details: Table II, pH 8.6, room temperature, 10 min pre-incubation, 30 min incubation.
T1 construct: purchased Boehringer, Montreal, Canada
Type: biochemical
Procedure: Determining the Inhibition of Thrombin
Lyophilized human plasma thrombin obtained from Boehringer, Montreal, Canada was dissolved in 0.5M Na, K-phosphate buffer (pH 7.0) and stored at +4° C.
Substrate: 0.5 mM Chromozym TH (tosyl-glycyl-prolylarginine-4-nitroanilide acetate) in DMSO
Inhibitor: 10 μM dissolved in DMSO
Temperature: room temperature (approx.).
A single inhibitor concentration (10 μM) was tested using a spectrophotometric end-point assay (1 ml final volume). Enzyme activity was monitored by formation of a product that absorbed light at 410 nm and an enzyme concentration which gave a rate of 0.01-0.02 AU/min was used. Enzyme and inhibitor were pre-incubated for 10 min in the final amounts of buffer and DMSO. The reaction was then started by the addition of substrate. After 30 min incubation the reaction was terminated by the addition of 10% SDS (0.1 ml) and the absorbance measured. Enzyme blanks were run concurrently to account for any background absorbance by the compound. Inhibition was calculated by the net A410 in the presence of inhibitor compared to that in the absence of inhibitor (DMSO controls).
An inhibition at 10 µM of 96.8% was found for `CO[C@H]1C(=O)N2C(C(=O)OC(C)(C)C)=C(COC(C)=O)/C(=C/c3ccccc3F)S(=O)(=O)[C@H]12` [drawing 36] in this work. An inhibition at 10 µM of 98.5% was found for `CO[C@H]1C(=O)N2C(C(=O)OC(C)(C)C)=C(COC(C)=O)/C(=C\c3ccccc3F)S(=O)(=O)[C@H]12` [drawing 37] in this work. An inhibition at 10 µM of 98.9% was found for `CO[C@H]1C(=O)N2C(C(=O)OC(C)(C)C)=C(COC(C)=O)/C(=C\c3ccsc3)S(=O)(=O)[C@H]12` [drawing 35] in this work. An inhibition at 10 µM of 94.7% was found for `CO[C@H]1C(=O)N2C(C(=O)OC(C)(C)C)=C(COC(C)=O)/C(=C\c3ccco3)S(=O)(=O)[C@H]12` [drawing 34] in this work.

What follows are molecules tested against T2, human leukocyte elastase (HLE) (Homo sapiens, UniProt P08246) (assay: Human leukocyte elastase (HLE) inhibition (MeO-Suc-Ala-Ala-Pro-Val-pNA hydrolysis, absorbance at 410 nm)). Details: Table I; pH 7.6, 30° C., 10 min pre-incubation, 10% (v/v) DMSO.
T2 construct: purchased Elastin products, Missouri, U.S.A
T2 sequence (P08246 30-267): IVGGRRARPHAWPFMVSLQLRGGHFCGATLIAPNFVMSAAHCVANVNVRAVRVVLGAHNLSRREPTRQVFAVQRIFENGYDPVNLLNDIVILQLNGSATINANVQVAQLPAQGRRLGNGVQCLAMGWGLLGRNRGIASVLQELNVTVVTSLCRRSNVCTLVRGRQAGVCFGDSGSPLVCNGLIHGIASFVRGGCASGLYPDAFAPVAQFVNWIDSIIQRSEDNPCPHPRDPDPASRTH
Type: biochemical
Procedure: Determining HLE Inhibitory Activity
Human leukocyte elastase (HLE) obtained from Elastin products, Missouri, U.S.A., is dissolved in 0.05M sodium acetate containing 0.4M sodium chloride (pH 5.3) and stored at -20° C. Small aliquots of these stock solutions (1 μm) are used in the HLE assays.
Buffer: 0.01M Na, K-Phosphate, 0.5M NaCl (pH 7.6)
Substrate: 0,014M Meo-Suc-Ala-Ala-Pro-Val-pNA in DMSO
Inhibitor: various concentrations in DMSO
Enzyme: stock solution noted above
The stock solution of enzyme was equilibrated to 30° C. A cuvette containing buffer and inhibitor was equilibrated to 30° C. 10 μL of enzyme solution giving a rate of 0.04-0.05 AU/min in the absence of inhibitor, was mixed into the buffer/inhibitor solution and this mixture was incubated at 30° C. for 10 minutes. After this pre-incubation substrate was added to give a final concentration of […] and a final DMSO concentration of 10% (v/v). The rate of product formation, proportional to the change in absorbance at 410 nm, was monitored for two minutes following the addition of substrate. For a typical IC50 plot the rate was determined at 5-8 inhibitor concentrations (in duplicate) spanning 10-80% inhibition (in most cases). In most cases the data could be fit by linear least-squares and the IC50 determined from this plot.
An IC50 of 7.8 nM was found for `CO[C@H]1C(=O)N2C(C(=O)OC(C)(C)C)=C(COC(C)=O)/C(=C/c3cn(C)nn3)S(=O)(=O)[C@H]12` in this work. An IC50 of 22 nM was found for `CO[C@H]1C(=O)N2C(C(=O)OC(C)(C)C)=C(COC(C)=O)/C(=C\c3ccco3)S(=O)(=O)[C@H]12` [drawing 25] in this work. An IC50 of 9.2 nM was found for `CO[C@H]1C(=O)N2C(C(=O)OC(C)(C)C)=C(COC(C)=O)/C(=C\c3cn(C)nn3)S(=O)(=O)[C@H]12` in this work. An IC50 of 7.2 nM was found for `CO[C@H]1C(=O)N2C(C(=O)OC(C)(C)C)=C(COC(C)=O)/C(=C\c3cccnc3)S(=O)(=O)[C@H]12` in this work. An IC50 of 35 nM was found for `CO[C@H]1C(=O)N2C(C(=O)OC(C)(C)C)=C(C)/C(=C/c3cccnc3)S(=O)(=O)[C@H]12` in this work. An IC50 of 6 nM was found for `CO[C@H]1C(=O)N2C(C(=O)OC(C)(C)C)=C(COC(C)=O)/C(=C\c3ccccc3F)S(=O)(=O)[C@H]12` [drawing 22] in this work. An IC50 of 75 nM was found for `CO[C@H]1C(=O)N2C(C(=O)OC(C)(C)C)=C(C)/C(=C/c3cn(C)nn3)S(=O)(=O)[C@H]12` in this work. An IC50 of 5.8 nM was found for `CO[C@H]1C(=O)N2C(C(=O)OC(C)(C)C)=C(COC(C)=O)/C(=C/c3ccccc3F)S(=O)(=O)[C@H]12` [drawing 21] in this work. An IC50 of 100 nM was found for `CO[C@H]1C(=O)N2C(C(=O)OC(C)(C)C)=C(C)/C(=C\c3cn(C)nn3)S(=O)(=O)[C@H]12` in this work. An IC50 of 7.2 nM was found for `CO[C@H]1C(=O)N2C(C(=O)OC(C)(C)C)=C(COC(C)=O)/C(=C/c3cccnc3)S(=O)(=O)[C@H]12` in this work. An IC50 of 6.4 nM was found for `CO[C@H]1C(=O)N2C(C(=O)OC(C)(C)C)=C(COC(C)=O)/C(=C/c3ccsc3)S(=O)(=O)[C@H]12` in this work. An IC50 of 6.4 nM was found for `CO[C@H]1C(=O)N2C(C(=O)OC(C)(C)C)=C(COC(C)=O)/C(=C\c3ccsc3)S(=O)(=O)[C@H]12` [drawing 29] in this work.
